Measured values taken from ChEMBL document CHEMBL4130428, “Recent advances in polysaccharides for osteoarthritis therapy” (2017).

Experiments:
Homo sapiens [1] = assay: Anti-osteoarthritis activity in knee osteoarthritis patient assessed as cartilage volume in medial condylar area dosed orally for 2 consecutive years by MRI method relative to control; assay type: functional
Homo sapiens [2] = assay: Anti-osteoarthritis activity in knee osteoarthritis patient assessed as cartilage volume in medial area dosed orally for 2 consecutive years by MRI method relative to control; assay type: functional

Cc1ccc(-c2cc(C(F)(F)F)nn2-c2ccc(S(N)(=O)=O)cc2)cc1 [CELECOXIB]
inhibition (INH) (Homo sapiens [1]): 7.7% | inhibition (INH) (Homo sapiens [2]): 8.1%
